In article PMC9067983, “Identification of highly selective type II kinase inhibitors with chiral peptidomimetic tails” (Journal of Enzyme Inhibition and Medicinal Chemistry, 2022):
Where a SMILES comes first, the peptide text is derived from it. [ ]: non-standard residue; d: D form. The star is where a group is joined. X1 = Cc1ccc(Nc2ncc3c(n2)N(C)C(=O)N(c2cc(C(=O)*)ccc2C)C3)cn1; Aib = CC(C)(N)C(=O)O

Experiments:
Assay in all cases: kinase selectivity profiling
Assay type in all cases: biochemical
Settings in all cases: 10µM ATP, read-out: % inhibition (relative to DMSO)
[1] = biological target: T1, KSR2 (Homo sapiens, UniProt Q6VAB6)
T1 construct: purchased Reaction Biology Corp
Method: (§1) Full panel kinase profiling and kinase IC50 measurement were performed by using Reaction Biology Corp. (San Diego, USA).

[2] = biological target: T2, KSR1 (Homo sapiens, UniProt Q8IVT5)
T2 construct: purchased Reaction Biology Corp
Method: as §1

[3] = biological target: T3, SLK/STK2 (Homo sapiens, UniProt Q9H2G2)
T3 construct: purchased Reaction Biology Corp
Method: as §1

[4] = biological target: T4, LKB1 (Homo sapiens, UniProt Q15831)
T4 construct: purchased Reaction Biology Corp
Method: as §1

[5] = biological target: T5, PKCb2 (Homo sapiens, UniProt P05771)
T5 construct: purchased Reaction Biology Corp
Method: as §1

[6] = biological target: T6, MARK1 (Homo sapiens, UniProt Q9P0L2)
T6 construct: purchased Reaction Biology Corp
Method: as §1

[7] = biological target: T7, PKCa (Homo sapiens, UniProt P17252)
T7 construct: purchased Reaction Biology Corp
Method: as §1

[8] = biological target: T8, CAMK2d (Homo sapiens, UniProt Q13557)
T8 construct: purchased Reaction Biology Corp
Method: as §1

[9] = biological target: T9, JNK3 (Homo sapiens, UniProt P53779)
T9 construct: purchased Reaction Biology Corp
Method: as §1

[10] = biological target: T10, TNK1 (Homo sapiens, UniProt Q13470)
T10 construct: purchased Reaction Biology Corp
Method: as §1

[11] = biological target: T11, CAMK1b (Homo sapiens, UniProt Q6P2M8)
T11 construct: purchased Reaction Biology Corp
Method: as §1

[12] = biological target: T12, ITK (Homo sapiens, UniProt Q08881)
T12 construct: purchased Reaction Biology Corp
Method: as §1

[13] = biological target: T13, DYRK1/DYRK1A (Homo sapiens, UniProt Q13627)
T13 construct: purchased Reaction Biology Corp
Method: as §1

[14] = biological target: T14, FGFR1 (Homo sapiens, UniProt P11362)
T14 construct: purchased Reaction Biology Corp
Method: as §1

[15] = biological target: T15, MARK4 (Homo sapiens, UniProt Q96L34)
T15 construct: purchased Reaction Biology Corp
Method: as §1

[16] = biological target: T16, DYRK3 (Homo sapiens, UniProt O43781)
T16 construct: purchased Reaction Biology Corp
Method: as §1

[17] = biological target: T17, MYO3b (Homo sapiens, UniProt Q8WXR4)
T17 construct: purchased Reaction Biology Corp
Method: as §1

[18] = biological target: T18, KDR/VEGFR2 (Homo sapiens, UniProt P35968)
T18 construct: purchased Reaction Biology Corp
Method: as §1

[19] = biological target: T19, STK38/NDR1 (Homo sapiens, UniProt Q15208)
T19 construct: purchased Reaction Biology Corp
Method: as §1

[20] = biological target: T20, DCAMKL1 (Homo sapiens, UniProt O15075)
T20 construct: purchased Reaction Biology Corp
Method: as §1

[21] = biological target: T21, STK16 (Homo sapiens, UniProt O75716)
T21 construct: purchased Reaction Biology Corp
Method: as §1

[22] = biological target: T22, MST4 (Homo sapiens, UniProt Q9P289)
T22 construct: purchased Reaction Biology Corp
Method: as §1

[23] = biological target: T23, DAPK1 (Homo sapiens, UniProt P53355)
T23 construct: purchased Reaction Biology Corp
Method: as §1

[24] = biological target: T24, MEK1 (Homo sapiens, UniProt Q02750)
T24 construct: purchased Reaction Biology Corp
Method: as §1

[25] = biological target: T25, IGF1R (Homo sapiens, UniProt P08069)
T25 construct: purchased Reaction Biology Corp
Method: as §1

[26] = biological target: T26, ZAP70 (Homo sapiens, UniProt P43403)
T26 construct: purchased Reaction Biology Corp
Method: as §1

[27] = biological target: T27, EPHB4 (Homo sapiens, UniProt P54760)
T27 construct: purchased Reaction Biology Corp
Method: as §1

[28] = biological target: T28, EPHB2 (Homo sapiens, UniProt P29323)
T28 construct: purchased Reaction Biology Corp
Method: as §1

[29] = biological target: T29, ZAK/MLTK (Homo sapiens, UniProt Q9NYL2)
T29 construct: purchased Reaction Biology Corp
Method: as §1

[30] = biological target: T30, MEK3 (Homo sapiens, UniProt P46734)
T30 construct: purchased Reaction Biology Corp
Method: as §1

[31] = biological target: T31, FYN (Homo sapiens, UniProt P06241)
T31 construct: purchased Reaction Biology Corp
Method: as §1

[32] = biological target: T32, ULK2 (Homo sapiens, UniProt Q8IYT8)
T32 construct: purchased Reaction Biology Corp
Method: as §1

[33] = biological target: T33, p70S6Kb/RPS6KB2 (Homo sapiens, UniProt Q9UBS0)
T33 construct: purchased Reaction Biology Corp
Method: as §1

[34] = biological target: T34, CDK1/cyclin E (Homo sapiens, UniProt P06493)
T34 construct: purchased Reaction Biology Corp
Method: as §1

[35] = biological target: T35, ALK6/BMPR1B (Homo sapiens, UniProt O00238)
T35 construct: purchased Reaction Biology Corp
Method: as §1

[36] = biological target: T36, NEK7 (Homo sapiens, UniProt Q8TDX7)
T36 construct: purchased Reaction Biology Corp
Method: as §1

[37] = biological target: T37, CLK1 (Homo sapiens, UniProt P49759)
T37 construct: purchased Reaction Biology Corp
Method: as §1

[38] = biological target: T38, STK39/STLK3 (Homo sapiens, UniProt Q9UEW8)
T38 construct: purchased Reaction Biology Corp
Method: as §1

[39] = biological target: T39, ALK4/ACVR1B (Homo sapiens, UniProt P36896)
T39 construct: purchased Reaction Biology Corp
Method: as §1

[40] = biological target: T40, EPHA2 (Homo sapiens, UniProt P29317)
T40 construct: purchased Reaction Biology Corp
Method: as §1

[41] = biological target: T41, NEK1 (Homo sapiens, UniProt Q96PY6)
T41 construct: purchased Reaction Biology Corp
Method: as §1

[42] = biological target: T42, NEK6 (Homo sapiens, UniProt Q9HC98)
T42 construct: purchased Reaction Biology Corp
Method: as §1

[43] = biological target: T43, MEKK3 (Homo sapiens, UniProt Q99759)
T43 construct: purchased Reaction Biology Corp
Method: as §1

T27 sequence (P54760 16-987): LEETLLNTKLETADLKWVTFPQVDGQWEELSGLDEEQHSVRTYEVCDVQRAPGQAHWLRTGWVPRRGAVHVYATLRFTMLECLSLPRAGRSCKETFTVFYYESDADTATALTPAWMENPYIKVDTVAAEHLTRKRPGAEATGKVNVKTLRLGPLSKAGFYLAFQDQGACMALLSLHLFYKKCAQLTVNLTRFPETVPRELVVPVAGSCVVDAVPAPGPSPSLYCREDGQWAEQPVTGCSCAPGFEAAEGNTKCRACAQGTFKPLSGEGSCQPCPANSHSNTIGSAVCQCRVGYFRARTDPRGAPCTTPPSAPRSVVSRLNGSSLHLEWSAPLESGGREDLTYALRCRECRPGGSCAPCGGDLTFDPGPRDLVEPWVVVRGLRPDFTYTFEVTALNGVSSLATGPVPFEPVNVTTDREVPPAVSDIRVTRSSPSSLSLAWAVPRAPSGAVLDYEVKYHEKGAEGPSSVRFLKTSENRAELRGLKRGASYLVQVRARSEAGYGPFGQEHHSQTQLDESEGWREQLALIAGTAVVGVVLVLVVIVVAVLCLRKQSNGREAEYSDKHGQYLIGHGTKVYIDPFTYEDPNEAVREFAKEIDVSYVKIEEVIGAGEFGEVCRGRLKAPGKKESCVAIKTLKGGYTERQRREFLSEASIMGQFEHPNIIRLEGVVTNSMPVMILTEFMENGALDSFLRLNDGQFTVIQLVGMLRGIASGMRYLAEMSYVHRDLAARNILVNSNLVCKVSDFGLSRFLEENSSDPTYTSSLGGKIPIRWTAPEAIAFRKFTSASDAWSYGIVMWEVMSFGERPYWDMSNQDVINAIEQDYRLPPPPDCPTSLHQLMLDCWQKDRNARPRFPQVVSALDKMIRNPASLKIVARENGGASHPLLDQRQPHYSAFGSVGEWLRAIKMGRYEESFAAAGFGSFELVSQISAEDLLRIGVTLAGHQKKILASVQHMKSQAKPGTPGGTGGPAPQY
T37 sequence (P49759 whole entry): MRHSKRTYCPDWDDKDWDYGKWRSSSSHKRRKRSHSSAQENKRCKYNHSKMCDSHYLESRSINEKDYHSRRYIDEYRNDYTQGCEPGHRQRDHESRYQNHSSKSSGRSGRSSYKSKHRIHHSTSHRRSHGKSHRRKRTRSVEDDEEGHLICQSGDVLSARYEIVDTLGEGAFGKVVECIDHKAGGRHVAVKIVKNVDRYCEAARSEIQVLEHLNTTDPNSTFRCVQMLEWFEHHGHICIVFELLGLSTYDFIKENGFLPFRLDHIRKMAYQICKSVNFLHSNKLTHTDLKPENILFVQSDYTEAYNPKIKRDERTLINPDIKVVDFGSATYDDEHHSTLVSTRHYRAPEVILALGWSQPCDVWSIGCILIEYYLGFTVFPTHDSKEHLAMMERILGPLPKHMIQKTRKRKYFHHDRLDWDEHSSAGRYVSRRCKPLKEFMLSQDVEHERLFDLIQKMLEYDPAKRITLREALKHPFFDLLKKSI
T6 sequence (Q9P0L2 whole entry): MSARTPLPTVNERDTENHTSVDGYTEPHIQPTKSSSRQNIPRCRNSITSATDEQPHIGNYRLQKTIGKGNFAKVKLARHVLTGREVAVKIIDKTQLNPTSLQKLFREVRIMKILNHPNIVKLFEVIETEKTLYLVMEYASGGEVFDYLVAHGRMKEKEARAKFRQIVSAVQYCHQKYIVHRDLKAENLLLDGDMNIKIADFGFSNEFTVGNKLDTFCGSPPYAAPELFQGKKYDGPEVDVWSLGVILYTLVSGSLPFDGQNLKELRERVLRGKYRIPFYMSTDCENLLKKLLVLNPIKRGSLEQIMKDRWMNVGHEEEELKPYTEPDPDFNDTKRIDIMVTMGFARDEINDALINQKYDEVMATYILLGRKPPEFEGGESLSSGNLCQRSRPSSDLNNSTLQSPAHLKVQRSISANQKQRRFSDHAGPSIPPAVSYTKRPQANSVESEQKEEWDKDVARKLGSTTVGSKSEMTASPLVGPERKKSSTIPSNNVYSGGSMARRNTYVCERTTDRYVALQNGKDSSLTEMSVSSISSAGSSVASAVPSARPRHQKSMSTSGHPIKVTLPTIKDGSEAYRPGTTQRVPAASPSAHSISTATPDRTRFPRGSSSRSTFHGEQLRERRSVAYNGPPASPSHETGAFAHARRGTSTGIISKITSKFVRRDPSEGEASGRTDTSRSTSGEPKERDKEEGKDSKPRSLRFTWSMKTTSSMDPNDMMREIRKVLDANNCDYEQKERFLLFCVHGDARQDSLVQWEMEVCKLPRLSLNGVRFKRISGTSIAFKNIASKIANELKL
T20 sequence (O15075 whole entry): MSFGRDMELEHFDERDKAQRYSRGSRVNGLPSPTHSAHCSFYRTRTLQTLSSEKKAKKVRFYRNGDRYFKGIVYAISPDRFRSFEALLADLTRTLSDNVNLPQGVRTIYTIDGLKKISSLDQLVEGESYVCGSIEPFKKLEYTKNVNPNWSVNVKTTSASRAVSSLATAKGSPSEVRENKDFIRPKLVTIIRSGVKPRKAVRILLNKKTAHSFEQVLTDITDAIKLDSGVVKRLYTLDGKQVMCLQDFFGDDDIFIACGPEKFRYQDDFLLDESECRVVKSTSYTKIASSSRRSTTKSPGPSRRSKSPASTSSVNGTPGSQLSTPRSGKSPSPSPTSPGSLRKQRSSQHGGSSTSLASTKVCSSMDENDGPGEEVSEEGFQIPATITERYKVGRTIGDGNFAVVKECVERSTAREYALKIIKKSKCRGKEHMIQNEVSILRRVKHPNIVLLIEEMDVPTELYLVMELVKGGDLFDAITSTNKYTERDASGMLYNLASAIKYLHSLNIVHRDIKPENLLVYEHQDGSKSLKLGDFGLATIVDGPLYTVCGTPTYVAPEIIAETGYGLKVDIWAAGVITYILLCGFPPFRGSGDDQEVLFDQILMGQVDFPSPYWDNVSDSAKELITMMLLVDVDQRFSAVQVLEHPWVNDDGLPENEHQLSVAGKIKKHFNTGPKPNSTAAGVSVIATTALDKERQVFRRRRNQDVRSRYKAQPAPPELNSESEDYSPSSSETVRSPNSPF
T33 sequence (Q9UBS0 whole entry): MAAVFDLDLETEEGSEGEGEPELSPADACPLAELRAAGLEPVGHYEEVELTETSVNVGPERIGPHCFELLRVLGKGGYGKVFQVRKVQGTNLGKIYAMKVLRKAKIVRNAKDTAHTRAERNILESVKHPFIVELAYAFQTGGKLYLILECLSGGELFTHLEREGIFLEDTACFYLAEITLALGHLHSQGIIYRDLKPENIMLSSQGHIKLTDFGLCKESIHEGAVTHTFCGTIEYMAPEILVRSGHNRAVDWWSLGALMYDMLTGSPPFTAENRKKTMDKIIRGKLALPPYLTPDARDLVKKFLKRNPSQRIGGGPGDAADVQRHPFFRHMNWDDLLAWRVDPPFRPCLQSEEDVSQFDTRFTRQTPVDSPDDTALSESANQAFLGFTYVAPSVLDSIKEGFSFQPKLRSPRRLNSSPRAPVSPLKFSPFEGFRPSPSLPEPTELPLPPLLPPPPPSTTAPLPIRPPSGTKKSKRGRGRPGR
T16 sequence (O43781 whole entry): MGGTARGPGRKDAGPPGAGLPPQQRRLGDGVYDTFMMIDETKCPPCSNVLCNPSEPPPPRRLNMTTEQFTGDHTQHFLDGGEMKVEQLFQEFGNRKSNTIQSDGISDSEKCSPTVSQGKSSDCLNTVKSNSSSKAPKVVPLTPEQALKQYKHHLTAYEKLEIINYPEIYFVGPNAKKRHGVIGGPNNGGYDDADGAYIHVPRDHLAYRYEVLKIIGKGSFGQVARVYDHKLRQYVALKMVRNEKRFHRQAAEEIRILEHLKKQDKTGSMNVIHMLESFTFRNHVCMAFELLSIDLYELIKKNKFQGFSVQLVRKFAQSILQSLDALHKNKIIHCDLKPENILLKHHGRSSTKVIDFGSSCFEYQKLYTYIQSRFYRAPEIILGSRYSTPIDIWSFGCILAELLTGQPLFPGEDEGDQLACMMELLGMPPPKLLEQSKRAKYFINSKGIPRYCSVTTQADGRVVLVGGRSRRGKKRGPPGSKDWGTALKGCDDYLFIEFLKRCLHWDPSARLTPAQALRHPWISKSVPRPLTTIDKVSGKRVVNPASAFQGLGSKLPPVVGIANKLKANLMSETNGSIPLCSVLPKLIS
T29 sequence (Q9NYL2 whole entry): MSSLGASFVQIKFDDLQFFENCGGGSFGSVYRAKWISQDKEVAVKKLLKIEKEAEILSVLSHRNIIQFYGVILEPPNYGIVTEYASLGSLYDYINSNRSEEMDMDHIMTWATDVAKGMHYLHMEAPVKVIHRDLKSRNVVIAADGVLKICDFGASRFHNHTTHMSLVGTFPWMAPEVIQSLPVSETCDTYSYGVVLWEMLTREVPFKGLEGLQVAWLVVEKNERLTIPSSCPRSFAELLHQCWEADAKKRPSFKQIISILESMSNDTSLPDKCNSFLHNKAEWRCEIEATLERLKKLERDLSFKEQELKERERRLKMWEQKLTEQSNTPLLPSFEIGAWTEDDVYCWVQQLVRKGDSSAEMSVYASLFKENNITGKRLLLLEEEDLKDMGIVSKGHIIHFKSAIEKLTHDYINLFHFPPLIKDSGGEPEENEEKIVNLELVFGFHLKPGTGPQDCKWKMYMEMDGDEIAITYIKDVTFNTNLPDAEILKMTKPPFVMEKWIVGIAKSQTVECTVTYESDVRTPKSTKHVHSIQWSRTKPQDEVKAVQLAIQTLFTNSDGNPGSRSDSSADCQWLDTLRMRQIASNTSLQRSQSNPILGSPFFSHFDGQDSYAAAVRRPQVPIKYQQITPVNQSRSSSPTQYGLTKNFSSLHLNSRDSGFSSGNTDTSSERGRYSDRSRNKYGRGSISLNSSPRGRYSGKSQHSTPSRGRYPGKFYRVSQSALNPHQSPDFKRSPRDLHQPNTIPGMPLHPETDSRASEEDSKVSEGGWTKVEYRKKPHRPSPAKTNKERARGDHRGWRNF

Cc1ccc(Nc2ncc3c(n2)N(C)C(=O)N(c2cc(C(=O)N[C@H](C(=O)N4CCC[C@H]4C(=O)NC(C)(C)C(=O)N[C@@H](CC(C)C)C(=O)N(C)C)C(C)C)ccc2C)C3)cn1 [7a, (S)-N-(1-(((S)-1-(dimethylamino)-4-methyl-1-oxopentan-2-yl)amino)-2-methyl-1-oxopropan-2-yl)-1-((4-methyl-3-(1-methyl-7-((6-methylpyridin-3-yl)amino)-2-oxo-1,4-dihydropyrimido[4,5-d]pyrimidin-3(2H)-yl)benzoyl)-L-valyl)pyrrolidine-2-carboxamide] (X1-VP[Aib]L-NMe2)
inhibition at 1 µM [1]: 5%
inhibition at 1 µM [2]: 2%
inhibition at 1 µM [3]: 9%
inhibition at 1 µM [4]: 0%
inhibition at 1 µM [5]: 0%
inhibition at 1 µM [6]: 0%
inhibition at 1 µM [7]: 0%
inhibition at 1 µM [8]: 0%
inhibition at 1 µM [9]: 1%
inhibition at 1 µM [10]: 2%
inhibition at 1 µM [11]: 15%
inhibition at 1 µM [12]: 7%
inhibition at 1 µM [13]: 20%
inhibition at 1 µM [14]: 37%
inhibition at 1 µM [15]: 0%
inhibition at 1 µM [16]: 23%
inhibition at 1 µM [17]: 0%
inhibition at 1 µM [18]: 12%
inhibition at 1 µM [19]: 0%
inhibition at 1 µM [20]: 0%
inhibition at 1 µM [21]: 0%
inhibition at 1 µM [22]: 0%
inhibition at 1 µM [23]: 0%
inhibition at 1 µM [24]: 8%
inhibition at 1 µM [25]: 0%
inhibition at 1 µM [26]: 0%
inhibition at 1 µM [27]: 16%
inhibition at 1 µM [28]: 29%
inhibition at 1 µM [29]: 14%
inhibition at 1 µM [30]: 0%
inhibition at 1 µM [31]: 21%
inhibition at 1 µM [32]: 5%
inhibition at 1 µM [33]: 0%
inhibition at 1 µM [34]: 0%
inhibition at 1 µM [35]: 16%
inhibition at 1 µM [36]: 2%
inhibition at 1 µM [37]: 5%
inhibition at 1 µM [38]: 0%
inhibition at 1 µM [39]: 0%
inhibition at 1 µM [40]: 21%
inhibition at 1 µM [41]: 0%
inhibition at 1 µM [42]: 0%
inhibition at 1 µM [43]: 11%
